Assay type in all cases: cell-based
For data set [1], the target named is T1, PPARδ (Homo sapiens, UniProt Q03181).
T1 sequence (Q03181 1-441): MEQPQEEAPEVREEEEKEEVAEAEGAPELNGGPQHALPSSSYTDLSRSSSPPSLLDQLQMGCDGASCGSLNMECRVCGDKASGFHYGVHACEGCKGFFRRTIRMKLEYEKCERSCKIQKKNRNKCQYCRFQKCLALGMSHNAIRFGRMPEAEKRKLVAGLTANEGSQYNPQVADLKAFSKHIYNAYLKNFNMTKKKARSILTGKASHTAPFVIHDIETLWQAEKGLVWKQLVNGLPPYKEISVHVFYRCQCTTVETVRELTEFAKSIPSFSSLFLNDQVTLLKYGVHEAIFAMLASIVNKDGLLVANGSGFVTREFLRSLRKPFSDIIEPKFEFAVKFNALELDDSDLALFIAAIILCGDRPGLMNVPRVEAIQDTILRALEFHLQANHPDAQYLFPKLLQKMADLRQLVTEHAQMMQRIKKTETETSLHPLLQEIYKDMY
Put plainly: Transfection assay (luciferase reporter) in CV-1 cells, PPARδ. The following applies: full-length PPAR plasmid, luciferase normalized with β-galactosidase. Details: full-length PPARs plasmid DNA; expressed in transfected cells; host or cells: CV-1 cells. Here is the method: (§1) The compounds prepared in Examples were tested for PPARδ activity by a transfection assay. In addition, the compounds were tested for selectivity for PPARα and PPARγ, the subtypes of PPARs, and also tested for toxicity by a MTT assay.
(§2) A transfection assay was performed using CV-1 cells. The culture of the cells was performed using a DMEM medium (10% FBS, DBS (delipidated) and 1% penicillin/streptomycin) on a 96-well plate in a 5% carbon dioxide-containing incubator at 37° C. […] Specifically, CV-1 cells were inoculated onto a 96-well plate at a concentration of 5,000 cells/well, and after 24 hours, the cells were transfected. In the cell transfection, full-length PPARs plasmid DNA, reporter DNA that has luciferase activity and thus allows the identification of PPARs, and β-galactosidase DNA that provides the information of transfection efficiency, were used as transfection reagents. Each of the compounds developed in the present invention was dissolved in dimethylsulfoxide (DMSO) and transfected into the cells at various concentrations using media. The cells were cultured in an incubator for 24 and then lysed with lysis buffer. The lysed cells were measured for luciferase and β-galactosidase activities using a luminometer and a microplate reader. The measured luciferase values were normalized with the β-galactosidase values and graphed. From the graph, EC50 values were determined.

The target of data set [2] is T2, PPARγ (Homo sapiens, UniProt P37231).
T2 construct: full-length PPARs plasmid DNA; expressed in transfected cells; host or cells: CV-1 cells
T2 sequence (P37231 1-505): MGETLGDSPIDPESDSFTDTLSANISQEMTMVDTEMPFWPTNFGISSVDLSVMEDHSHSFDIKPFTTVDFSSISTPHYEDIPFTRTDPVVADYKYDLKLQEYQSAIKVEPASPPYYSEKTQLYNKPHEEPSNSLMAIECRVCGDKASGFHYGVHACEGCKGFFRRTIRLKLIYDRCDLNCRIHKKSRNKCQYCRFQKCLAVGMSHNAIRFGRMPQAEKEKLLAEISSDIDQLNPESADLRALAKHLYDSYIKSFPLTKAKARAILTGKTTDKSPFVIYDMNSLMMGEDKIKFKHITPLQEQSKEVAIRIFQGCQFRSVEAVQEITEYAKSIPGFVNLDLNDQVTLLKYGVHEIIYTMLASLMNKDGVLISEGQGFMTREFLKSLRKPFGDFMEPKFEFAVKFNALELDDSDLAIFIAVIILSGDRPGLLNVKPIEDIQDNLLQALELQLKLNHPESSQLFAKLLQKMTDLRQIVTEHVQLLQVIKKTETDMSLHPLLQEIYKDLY
The data set is described as follows: Transfection assay (luciferase reporter) in CV-1 cells, PPARγ. The following applies: full-length PPAR plasmid, luciferase normalized with β-galactosidase. As to the method: as §1, §2
Background: In a reporter assay the amount or activity of a reporter protein is the signal.

Data set [3] deals with T3, PPARα (Homo sapiens, UniProt Q07869).
T3 construct: full-length PPARs plasmid DNA; expressed in transfected cells; host or cells: CV-1 cells
T3 sequence (Q07869 1-468): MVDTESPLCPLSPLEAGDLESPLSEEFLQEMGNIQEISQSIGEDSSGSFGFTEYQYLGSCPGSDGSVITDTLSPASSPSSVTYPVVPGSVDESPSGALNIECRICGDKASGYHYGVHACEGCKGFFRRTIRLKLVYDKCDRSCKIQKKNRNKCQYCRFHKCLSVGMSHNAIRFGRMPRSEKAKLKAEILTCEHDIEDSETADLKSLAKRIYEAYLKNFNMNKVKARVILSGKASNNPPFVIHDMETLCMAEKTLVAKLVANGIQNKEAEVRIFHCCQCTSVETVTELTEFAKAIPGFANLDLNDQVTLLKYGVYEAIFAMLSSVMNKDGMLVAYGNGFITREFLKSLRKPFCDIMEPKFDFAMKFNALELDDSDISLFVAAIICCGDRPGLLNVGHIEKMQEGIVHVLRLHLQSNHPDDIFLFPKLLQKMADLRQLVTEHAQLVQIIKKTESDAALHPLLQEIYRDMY
Put plainly: Transfection assay (luciferase reporter) in CV-1 cells, PPARα. The following applies: full-length PPAR plasmid, luciferase normalized with β-galactosidase. As to the method:
as §1
A transfection assay was performed using CV-1 cells. The culture of the cells was performed using a DMEM medium (10% FBS, DBS (delipidated) and 1% penicillin/streptomycin) on a 96-well plate in a 5% carbon dioxide-containing incubator at 37° C. The test was performed in four steps consisting of cell inoculation, transfection, treatment of the compounds, and analysis of results. Specifically, CV-1 cells were inoculated onto a 96-well plate at a concentration of 5,000 cells/well, and after 24 hours, the cells were transfected. In the cell transfection, full-length PPARs plasmid DNA, reporter DNA that has luciferase activity and thus allows the identification of PPARs, and β-galactosidase DNA that provides the information of transfection efficiency, were used as transfection reagents. Each of the compounds developed in the present invention was dissolved in dimethylsulfoxide (DMSO) and transfected into the cells at various concentrations using media. The cells were cultured in an incubator for 24 and then lysed with lysis buffer. The lysed cells were measured for luciferase and β-galactosidase activities using a luminometer and a microplate reader. The measured luciferase values were normalized with the β-galactosidase values and graphed. From the graph, EC50 values were determined.

Data set [4] in a line: MTT assay, cytotoxicity. The following applies: African green monkey, CV-1 cells, read-out: LC50 Cytotoxicity. As to the method: The compounds of Examples 47-97 according to the present invention were tested for cytotoxicity using a MTT assay. MTT is a water-soluble yellow substance, but if it is introduced into living cells, it will be degenerated into a water-insoluble purple crystal due to dehydrogenase contained in mitochondria. If this substance is dissolved in dimethylsulfoxide and then measured for absorbance at 550 nm, cytotoxicity can be assayed. The test method is as follows.
CV-1 cells were first inoculated onto a 96-well plate at a concentration of 5,000 cells/well. The inoculated cells were cultured in a 5% carbon dioxide-containing humidified incubator at 37° C. for 24 hours, and then treated with the inventive compounds at various concentrations. After 24 hours of culture, a MTT reagent was added to the cultured cells. After 15 minutes of culture, the resulting purple crystal was dissolved in dimethylsulfoxide and then measured for absorbance using a microplate reader. From the measured absorbance, cytotoxicity was assayed.
On the technique in general: Tetrazolium assays rely on reduction of a dye to a coloured formazan, in cell work by metabolically active cells.

SMILES strings stand for the structures.

For `Cc1cc(SC(Cc2ccc(F)cc2F)c2sc(-c3ccc(C(F)(F)F)c(F)c3)nc2C)ccc1OCC(=O)O` (stereo not drawn) [Example 96, 2-[4-[1-[2-[3-fluoro-4-(trifluoromethyl)phenyl]-4-methylthiazol-5-yl]-2-(2,4-difluorophenyl)ethylthio]-2-methylphenoxy]acetic acid], the EC50 in data set [1] was 4.8 nM; in data set [3] it was > 10000 nM. Moreover, the “EC50 PPARγ” value in data set [2] is “ia”. For the same molecule, the CC50 at 24 h in data set [4] is > 10000 nM.

Molecule `Cc1cc(SC(Cc2ccc(F)cc2F)c2sc(-c3ccc(C(F)(F)F)cc3)nc2C)ccc1OCC(=O)O` (stereo not drawn) [Example 85, 2-[4-[1-[2-[4-(trifluoromethyl)phenyl]-4-methylthiazol-5-yl]-2-(2,4-difluorophenyl)ethylthio]-2-methylphenoxy]acetic acid] gave an EC50 in data set [1] of 3.4 nM. In addition, the “EC50 PPARγ” value in data set [2] was “ia”. Further, the “EC50 PPARα” value in data set [3] is listed as “ia”. In addition, the CC50 at 24 h in data set [4] is > 100000 nM.

With `Cc1cc(SC(Cc2cc(F)ccc2Cl)c2sc(-c3ccc(C(F)(F)F)c(F)c3)nc2C)ccc1OCC(=O)O` (stereo not drawn) [Example 97, 2-[4-[2-(2-chloro-5-fluorophenyl)-1-[2-[3-fluoro-4-(trifluoromethyl)phenyl]-4-methylthiazol-5-yl]ethylthio]-2-methylphenoxy]acetic acid], a half-maximal effect in data set [1] (EC50) was put at 17.4 nM. Moreover, in data set [2], the “EC50 PPARγ” value is recorded as “ia”. Moreover, the “EC50 PPARα” value in data set [3] was “ia”. Further, in data set [4], the CC50 at 24 h is > 30000 nM.

In data set [1], `Cc1cc(SC(Cc2cc(F)ccc2Cl)c2sc(-c3ccc(C(F)(F)F)cc3)nc2C)ccc1OCC(=O)O` (stereo not drawn) [Example 86, 2-[4-[2-(2-chloro-5-fluorophenyl)-1-[2-[4-(trifluoromethyl)phenyl]-4-methylthiazol-5-yl]ethylthio]-2-methylphenoxy]acetic acid] had an EC50 of 8.7 nM. The “EC50 PPARγ” value in data set [2] is on record as “ia”. Moreover, the “EC50 PPARα” value in data set [3] was “ia”. In data set [4], the CC50 at 24 h is > 100000 nM.

Molecule `Cc1cc(SC(Cc2ccc(C(F)(F)F)cc2)c2sc(-c3ccc(C(F)(F)F)cc3)nc2C)ccc1OCC(=O)O` (stereo not drawn) [Example 78, 2-[4-[2-[4-(trifluoromethyl)phenyl]-1-[2-[4-(trifluoromethyl)phenyl]-4-methylthiazol-5-yl]ethylthio]-2-methylphenoxy]acetic acid] returned an EC50 in data set [1] of 13.3 nM. In data set [2], the “EC50 PPARγ” value is recorded as “ia”. Moreover, the “EC50 PPARα” value in data set [3] is “ia”. For the same molecule, the CC50 at 24 h in data set [4] was > 100000 nM.

`Cc1cc(SC(CCCc2ccccc2)c2sc(-c3ccc(C(F)(F)F)cc3)nc2C)ccc1OCC(=O)O` (stereo not drawn) [Example 70, 2-[4-[1-[2-[4-(trifluoromethyl)phenyl]-4-methylthiazol-5-yl]-4-phenylbutylthio]-2-methylphenoxy]acetic acid] came in with an EC50 in data set [1] of 6.1 nM. For the same molecule, in data set [2], the “EC50 PPARγ” value is “ia”. In data set [3], the “EC50 PPARα” value was “ia”. In data set [4], the CC50 at 24 h is 91000 nM.

With `Cc1cc(SC(CCCCCCCCCCc2ccccc2)c2sc(-c3ccc(C(F)(F)F)cc3)nc2C)ccc1OCC(=O)O` (stereo not drawn) [Example 74, 2-[4-[1-[2-[4-(trifluoromethyl)phenyl]-4-methylthiazol-5-yl]-11-phenylundecylthio]-2-methylphenoxy]acetic acid], the EC50 in data set [1] was found to be 132 nM. In data set [2], the “EC50 PPARγ” value is given as “ia”. In addition, the “EC50 PPARα” value in data set [3] was “ia”. In data set [4], the CC50 at 24 h was > 100000 nM.

For `CCOC(=O)COc1ccc(SC(Cc2c(F)cccc2Cl)c2sc(-c3ccc(C(F)(F)F)cc3)nc2C)cc1C` (stereo not drawn) [Example 47], the EC50 in data set [1] was 6.5 nM. In addition, the “EC50 PPARγ” value in data set [2] was “ia”. Also, the “EC50 PPARα” value in data set [3] is “ia”. Moreover, the CC50 at 24 h in data set [4] was > 100000 nM.

In turn, `Cc1cc(SC(Cc2ccc(C#N)cc2)c2sc(-c3ccc(C(F)(F)F)cc3)nc2C)ccc1OCC(=O)O` (stereo not drawn) [Example 76, 2-[4-[2-(4-cyanophenyl)-1-[2-[4-(trifluoromethyl)phenyl]-4-methylthiazol-5-yl]ethylthio]-2-methylphenoxy]acetic acid] came in with an EC50 in data set [1] of 22.1 nM. The “EC50 PPARγ” value in data set [2] is recorded as “ia”. For the same molecule, the “EC50 PPARα” value in data set [3] was “ia”. For the same molecule, the CC50 at 24 h in data set [4] is > 100000 nM.

As to `Cc1cc(SC(Cc2ccc(Br)cc2)c2sc(-c3ccc(C(F)(F)F)cc3)nc2C)ccc1OCC(=O)O` (stereo not drawn) [Example 81, 2-[4-[2-(4-bromophenyl)-1-[2-[4-(trifluoromethyl)phenyl]-4-methylthiazol-5-yl]ethylthio]-2-methylphenoxy]acetic acid], a half-maximal effect in data set [1] (EC50) was put at 11.5 nM. For the same molecule, in data set [2], the “EC50 PPARγ” value was “ia”. Moreover, the CC50 at 24 h in data set [4] is 92000 nM.

Regarding `Cc1cc(SC(Cc2c(F)cccc2C(F)(F)F)c2sc(-c3ccc(C(F)(F)F)cc3)nc2C)ccc1OCC(=O)O` (stereo not drawn) [Example 82, 2-[4-[2-[2-fluoro-6-(trifluoromethyl)phenyl]-1-[2-[4-(trifluoromethyl)phenyl]-4-methylthiazol-5-yl]ethylthio]-2-methylphenoxy]acetic acid], in data set [1], the EC50 was 2.6 nM. The “EC50 PPARα” value in data set [3] is “ia”. Also, in data set [4], the CC50 at 24 h is > 100000 nM.

On to `Cc1cc(SC(Cc2c(F)c(F)c(F)c(F)c2F)c2sc(-c3ccc(C(F)(F)F)cc3)nc2C)ccc1OCC(=O)O` (stereo not drawn) [Example 80, 2-[4-[1-[2-[4-(trifluoromethyl)phenyl]-4-methylthiazol-5-yl]-2-(perfluorophenyl)ethylthio]-2-methylphenoxy]acetic acid], for which the EC50 in data set [1] came to 46.4 nM. Also, the “EC50 PPARα” value in data set [3] is recorded as “ia”. Further, the CC50 at 24 h in data set [4] was > 100000 nM.

As usually defined, the EC50 is the midpoint of the concentration-response curve.

The values above are taken from US20090054493A1, “THIAZOLE DERIVATIVES AS PPAR DELTA LIGANDS AND THEIR MANUFACTURING PROCESS” (priority 2005, published 2009).
